# Test results from patent US9260439B2, “Dihydropyrrolopyrimidine derivatives” (PFIZER INC., priority 2014, dated 2016).
# Where a name gives a salt, the structure may show the parent alone.
# Molecular target: truncated PI3Kα (p110α/iSH2 p85α) (Homo sapiens (Human), UniProt P42336)
# Assay: PI3KA_Act fluorescence polarization kinase assay (Ki)
# Assay type: biochemical
# Conditions: 1 mM ATP
# In short: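 p110α/iSH2 p85α (0.5 nM) was reacted with 30 μM sonicated PIP2 in 50 mM HEPES pH 7.4, 150 mM NaCl, 5 mM MgCl2, 1 mM DTT and 0.05% CHAPS for 30 min at room temperature, then stopped with EDTA. PIP3 was detected by fluorescence polarization (GST-Grp1 PH domain/TAMRA-PIP3), and Ki came from a Morrison tight-binding fit.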
# Chain of truncated PI3Kα (p110α/iSH2 p85α) (P42336 whole entry, the tested form may be a part): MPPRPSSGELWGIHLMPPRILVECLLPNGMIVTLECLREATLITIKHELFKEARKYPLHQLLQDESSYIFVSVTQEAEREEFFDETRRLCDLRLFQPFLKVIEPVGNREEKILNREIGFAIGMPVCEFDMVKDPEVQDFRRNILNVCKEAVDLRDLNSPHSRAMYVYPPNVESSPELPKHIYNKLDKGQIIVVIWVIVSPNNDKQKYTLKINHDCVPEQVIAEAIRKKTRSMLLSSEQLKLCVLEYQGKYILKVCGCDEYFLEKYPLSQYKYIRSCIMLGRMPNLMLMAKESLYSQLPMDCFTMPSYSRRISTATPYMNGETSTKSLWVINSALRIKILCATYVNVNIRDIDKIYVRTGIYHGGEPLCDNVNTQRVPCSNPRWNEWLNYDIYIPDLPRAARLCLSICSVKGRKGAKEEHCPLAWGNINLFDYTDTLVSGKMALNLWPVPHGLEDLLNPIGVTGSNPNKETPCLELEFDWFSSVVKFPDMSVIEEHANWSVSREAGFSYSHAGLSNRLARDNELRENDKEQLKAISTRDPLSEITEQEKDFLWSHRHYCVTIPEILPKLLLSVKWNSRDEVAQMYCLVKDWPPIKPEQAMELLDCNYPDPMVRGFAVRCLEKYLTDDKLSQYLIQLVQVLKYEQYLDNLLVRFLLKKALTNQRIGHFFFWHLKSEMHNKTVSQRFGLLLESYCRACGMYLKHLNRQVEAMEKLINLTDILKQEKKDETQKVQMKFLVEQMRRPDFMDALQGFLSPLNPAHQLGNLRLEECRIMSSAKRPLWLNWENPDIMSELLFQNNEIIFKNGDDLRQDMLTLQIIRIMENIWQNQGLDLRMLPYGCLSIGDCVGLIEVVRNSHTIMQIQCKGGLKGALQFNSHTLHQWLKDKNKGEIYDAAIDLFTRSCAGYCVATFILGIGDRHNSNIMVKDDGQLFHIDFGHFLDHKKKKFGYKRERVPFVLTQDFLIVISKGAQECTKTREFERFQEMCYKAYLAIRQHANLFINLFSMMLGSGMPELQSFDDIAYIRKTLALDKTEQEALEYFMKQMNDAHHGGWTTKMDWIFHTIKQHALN
Compound,PI3KA_Act Ki,Ki
"C[C@H]1COCCN1c1nc(-c2cnc(N)nc2)c2c(n1)N([C@@]1(C)CCN(C(=O)[C@H](N)C3CC3)C1)CC2.Cl [Example 482, (2R)-2-amino-1-[(3S)-3-{4-(2-aminopyrimidin-5-yl)-2-[(3S)-3-methylmorpholin-4-yl]-5,6-dihydro-7H-pyrrolo[2,3-d]pyrimidin-7-yl}-3-methylpyrrolidin-1-yl]-2-cyclopropylethanone hydrochloride]",0.022 nM,
"C[C@H]1COCCN1c1nc(-c2cnc(N)nc2)c2c(n1)N([C@@]1(C)CCN(C(=O)CN(C)C)C1)CC2 [Example 483, 1-[(3S)-3-{4-(2-aminopyrimidin-5-yl)-2-[(3S)-3-methylmorpholin-4-yl]-5,6-dihydro-7H-pyrrolo[2,3-d]pyrimidin-7-yl}-3-methylpyrrolidin-1-yl]-2-(dimethylamino)ethanone]",0.049 nM,
"C[C@H]1COCCN1c1nc(-c2cnc(N)nc2)c2c(n1)N([C@@]1(C)CCN(C(=O)C(C)(C)CN)C1)CC2.Cl [Example 484, 3-amino-1-[(3S)-3-{4-(2-aminopyrimidin-5-yl)-2-[(3S)-3-methylmorpholin-4-yl]-5,6-dihydro-7H-pyrrolo[2,3-d]pyrimidin-7-yl}-3-methylpyrrolidin-1-yl]-2,2-dimethylpropan-1-one hydrochloride]",<0.018 nM,
"C[C@H]1COCCN1c1nc(-c2cnc(N)nc2)c2c(n1)N([C@@]1(C)CCN(C(=O)[C@](C)(N)CO)C1)CC2.Cl [Example 485, (2R)-2-amino-1-[(3S)-3-{4-(2-aminopyrimidin-5-yl)-2-[(3S)-3-methylmorpholin-4-yl]-5,6-dihydro-7H-pyrrolo[2,3-d]pyrimidin-7-yl}-3-methylpyrrolidin-1-yl]-3-hydroxy-2-methylpropan-1-one hydrochloride]",<0.018 nM,
"C[C@H]1COCCN1c1nc(-c2cnc(N)nc2)c2c(n1)N([C@@]1(C)CCN(C(=O)[C@@](C)(N)CO)C1)CC2.Cl [Example 486, (2S)-2-amino-1-[(3S)-3-{4-(2-aminopyrimidin-5-yl)-2-[(3S)-3-methylmorpholin-4-yl]-5,6-dihydro-7H-pyrrolo[2,3-d]pyrimidin-7-yl}-3-methylpyrrolidin-1-yl]-3-hydroxy-2-methylpropan-1-one hydrochloride]",<0.018 nM,
"C[C@H]1COCCN1c1nc(-c2cnc(N)nc2)c2c(n1)N([C@@]1(C)CCN(C(=O)C(C)(N)CO)C1)CC2.Cl (stereo partly drawn) [Example 487, 2-amino-1-[(3S)-3-{4-(2-aminopyrimidin-5-yl)-2-[(3S)-3-methylmorpholin-4-yl]-5,6-dihydro-7H-pyrrolo[2,3-d]pyrimidin-7-yl}-3-methylpyrrolidin-1-yl]-3-hydroxy-2-methylpropan-1-one hydrochloride]",0.011 nM,
"CNC(C)(C)C(=O)N1CC[C@](C)(N2CCc3c(-c4cnc(N)nc4)nc(N4CCOC[C@@H]4C)nc32)C1.Cl [Example 488, 1-[(3S)-3-{4-(2-aminopyrimidin-5-yl)-2-[(3S)-3-methylmorpholin-4-yl]-5,6-dihydro-7H-pyrrolo[2,3-d]pyrimidin-7-yl}-3-methylpyrrolidin-1-yl]-2-methyl-2-(methylamino)propan-1-one hydrochloride]",<0.018 nM,
"C[C@H]1COCCN1c1nc(-c2cnc(N)nc2)c2c(n1)N([C@@]1(C)CCN(C(=O)C(F)(F)CN)C1)CC2.Cl [Example 489, 3-amino-1-[(3S)-3-{4-(2-aminopyrimidin-5-yl)-2-[(3S)-3-methylmorpholin-4-yl]-5,6-dihydro-7H-pyrrolo[2,3-d]pyrimidin-7-yl}-3-methylpyrrolidin-1-yl]-2,2-difluoropropan-1-one hydrochloride]",<0.018 nM,
"C[C@H]1COCCN1c1nc(-c2cnc(N)nc2)c2c(n1)N([C@@]1(C)CCN(C(=O)[C@@H](N)C(F)(F)F)C1)CC2.Cl [Example 490, (2R)-2-amino-1-[(3S)-3-{4-(2-aminopyrimidin-5-yl)-2-[(3S)-3-methylmorpholin-4-yl]-5,6-dihydro-7H-pyrrolo[2,3-d]pyrimidin-7-yl}-3-methylpyrrolidin-1-yl]-3,3,3-trifluoropropan-1-one hydrochloride]",<0.018 nM,
"C[C@H]1COCCN1c1nc(-c2cnc(N)nc2)c2c(n1)N([C@@]1(C)CCN(C(=O)[C@H](N)C(F)(F)F)C1)CC2.Cl [Example 491, (2S)-2-amino-1-[(3S)-3-{4-(2-aminopyrimidin-5-yl)-2-[(3S)-3-methylmorpholin-4-yl]-5,6-dihydro-7H-pyrrolo[2,3-d]pyrimidin-7-yl}-3-methylpyrrolidin-1-yl]-3,3,3-trifluoropropan-1-one hydrochloride]",0.050 nM,
"C[C@H]1COCCN1c1nc(-c2cnc(N)nc2)c2c(n1)N([C@@]1(C)CCN(C(=O)C3(N)CC3)C1)CC2.Cl [Example 492, (1-aminocyclopropyl)[(3S)-3-{4-(2-aminopyrimidin-5-yl)-2-[(3S)-3-methylmorpholin-4-yl]-5,6-dihydro-7H-pyrrolo[2,3-d]pyrimidin-7-yl}-3-methylpyrrolidin-1-yl]methanone hydrochloride]",0.101 nM,
"C[C@H]1COCCN1c1nc(-c2cnc(N)nc2)c2c(n1)N([C@@]1(C)CCN(C(=O)C3(CN)CC3)C1)CC2.Cl [Example 493, [1-(aminomethyl)cyclopropyl][(3S)-3-{4-(2-aminopyrimidin-5-yl)-2-[(3S)-3-methylmorpholin-4-yl]-5,6-dihydro-7H-pyrrolo[2,3-d]pyrimidin-7-yl}-3-methylpyrrolidin-1-yl]methanone hydrochloride]",0.061 nM,
"C[C@H]1COCCN1c1nc(-c2cnc(N)nc2)c2c(n1)N([C@@]1(C)CCN(C(=O)[C@@]3(C)CCN3)C1)CC2.Cl [Example 494, [(3S)-3-{4-(2-aminopyrimidin-5-yl)-2-[(3S)-3-methylmorpholin-4-yl]-5,6-dihydro-7H-pyrrolo[2,3-d]pyrimidin-7-yl}-3-methylpyrrolidin-1-yl][(2R)-2-methylazetidin-2-yl]methanone hydrochloride]",0.046 nM,
"C[C@H]1COCCN1c1nc(-c2cnc(N)nc2)c2c(n1)N([C@@]1(C)CCN(C(=O)[C@]3(C)CCN3)C1)CC2.Cl [Example 495, [(3S)-3-{4-(2-aminopyrimidin-5-yl)-2-[(3S)-3-methylmorpholin-4-yl]-5,6-dihydro-7H-pyrrolo[2,3-d]pyrimidin-7-yl}-3-methylpyrrolidin-1-yl][(2S)-2-methylazetidin-2-yl]methanone hydrochloride]",0.031 nM,
"C[C@H]1COCCN1c1nc(-c2cnc(N)nc2)c2c(n1)N([C@@]1(C)CCN(C(=O)C3(F)CNC3)C1)CC2 [Example 496, [(3S)-3-{4-(2-aminopyrimidin-5-yl)-2-[(3S)-3-methylmorpholin-4-yl]-5,6-dihydro-7H-pyrrolo[2,3-d]pyrimidin-7-yl}-3-methylpyrrolidin-1-yl](3-fluoroazetidin-3-yl)methanone hydrochloride]",,< 0.018 nM
"C[C@H]1COCCN1c1nc(-c2cnc(N)nc2)c2c(n1)N([C@@]1(C)CCN(C(=O)C3(F)CN(C(=O)OC(C)(C)C)C3)C1)CC2 [Example 497, tert-butyl 3-{[(3S)-3-{4-(2-aminopyrimidin-5-yl)-2-[(3S)-3-methylmorpholin-4-yl]-5,6-dihydro-7H-pyrrolo[2,3-d]pyrimidin-7-yl}-3-methylpyrrolidin-1-yl]carbonyl}-3-fluoroazetidine-1-carboxylate]",,0.056 nM
"COC1CN(C(=O)N2CC[C@](C)(N3CCc4c(-c5cnc(N)nc5)nc(N5CCOC[C@@H]5C)nc43)C2)C1 [Example 498, [(3S)-3-{4-(2-aminopyrimidin-5-yl)-2-[(3S)-3-methylmorpholin-4-yl]-5,6-dihydro-7H-pyrrolo[2,3-d]pyrimidin-7-yl}-3-methylpyrrolidin-1-yl](3-methoxyazetidin-1-yl)methanone]",0.048 nM,
"C[C@H]1COCCN1c1nc(-c2cnc(N)nc2)c2c(n1)N([C@@]1(C)CCN(C(=O)[C@@H]3CCOC3)C1)CC2 [Example 499, [(3S)-3-{4-(2-aminopyrimidin-5-yl)-2-[(3S)-3-methylmorpholin-4-yl]-5,6-dihydro-7H-pyrrolo[2,3-d]pyrimidin-7-yl}-3-methylpyrrolidin-1-yl][(3R)-tetrahydrofuran-3-yl]methanone]",0.048 nM,
"C[C@H]1COCCN1c1nc(-c2cnc(N)nc2)c2c(n1)N([C@@]1(C)CCN(C(=O)[C@H]3CCOC3)C1)CC2 [Example 500, [(3S)-3-{4-(2-aminopyrimidin-5-yl)-2-[(3S)-3-methylmorpholin-4-yl]-5,6-dihydro-7H-pyrrolo[2,3-d]pyrimidin-7-yl}-3-methylpyrrolidin-1-yl][(3S)-tetrahydrofuran-3-yl]methanone]",0.064 nM,
"C[C@H]1COCCN1c1nc(-c2cnc(N)nc2)c2c(n1)N([C@@]1(C)CCN(C(=O)[C@H]3CCCO3)C1)CC2 [Example 501, [(3S)-3-{4-(2-aminopyrimidin-5-yl)-2-[(3S)-3-methylmorpholin-4-yl]-5,6-dihydro-7H-pyrrolo[2,3-d]pyrimidin-7-yl}-3-methylpyrrolidin-1-yl][(2R)-tetrahydrofuran-2-yl]methanone]",0.035 nM,
"CNC(=N)N1CC[C@](C)(N2CCc3c(-c4cnc(N)nc4)nc(N4CCOC[C@@H]4C)nc32)C1 [Example 504, (3S)-3-{4-(2-aminopyrimidin-5-yl)-2-[(3S)-3-methylmorpholin-4-yl]-5,6-dihydro-7H-pyrrolo[2,3-d]pyrimidin-7-yl}-N,3-dimethylpyrrolidine-1-carboximidamide]",0.109 nM,
"CNC(=O)N1CC[C@@](C)(N2CCc3c(-c4cnc(N)nc4)nc(N4CCOC[C@@H]4C)nc32)C1 [Example 505, (3R)-3-{4-(2-aminopyrimidin-5-yl)-2-[(3S)-3-methylmorpholin-4-yl]-5,6-dihydro-7H-pyrrolo[2,3-d]pyrimidin-7-yl}-N,3-dimethylpyrrolidine-1-carboxamide]",0.139 nM,
